Laboratory results: ChEMBL document CHEMBL1141272, “Eujavanicols A-C, decalin derivatives from Eupenicillium javanicum” (J Nat Prod, 2007)
Active and inactive are the calls of the source. No cut-off for these calls is given here.

Each compound was assayed on Aspergillus fumigatus (assay: Antifungal activity against Aspergillus fumigatus).
Assay type: functional, organism-based
With CC[C@@H](C)[C@H]1C=C[C@H]2[C@H](O)[C@H](O)C[C@@H](C)[C@@H]2[C@@]1(C)C(=O)CCO the Activity was “inactive”. In the case of CC[C@@H](C)C1=CC(=O)[C@H]2[C@H](O)[C@H](O)C[C@@H](C)[C@@H]2[C@@]1(C)C(=O)CCO, the Activity is reported as “inactive”. For CC[C@@H](C)[C@H]1C=C[C@H]2[C@H](O)[C@@H](O)C[C@@H](C)[C@@H]2[C@@]1(C)C(=O)CCO, the Activity was “inactive”.
